Reference: US20220204449A1, “BIASED AGONISTS OF OPIOID RECEPTORS” (ILDONG PHARMACEUTICAL CO., LTD., priority 2020, published 2022)
Like-named read-outs stand apart in the source and are kept apart here.

Tests used:
Type in all cases: cell-based
[1] = molecular target: T1, human δ-opioid receptor, OPRD (Homo sapiens, UniProt P41143); assay: PathHunter β-arrestin 2 assay, OPRD cell line; conditions: for OPRD β-ARR2 Emax (%): Example 3, Tables 5-7
T1 construct: host or cells: HEK-293 overexpressing β-arrestin2 fused to a β-galactosidase fragment
Text: (§1) Human embryonic kidney 293 (HEK-293) cells which transfected overexpress (3-arrestin2 fused β-galactosidase fragment were purchased from DiscoverX. Human OPRM1 gene (NM 000914.3, encoding human μ-opioid receptor, OPRM) and Human OPRD1 gene (NM 000911.3, encoding human δ-opioid receptor, OPRD) were fused to a pCMV-ProLink plasmid which contains complementary β-galactosidase fragment purchased from DiscoverX. To generate human OPRM1 or OPRD1 expression cell lines, HEK-293 cells were transfected to prepared plasmid and grown in DMEM medium with 10% fetal bovine serum, 150 μg/mL Hygromycin B and 500 μg/mL G418.
(§2) The PathHunter enzyme assay was performed to measure the agonist's capability of β-arrestin 2 pathway activation. When agonists bind to G protein-coupled receptor (GPCR), the receptor pathway is sequentially activated from G protein to β-arrestin 2 recruitment.
(§3) Because […] β-arrestin 2 and C-terminal of GPCR have a fragment of β-galactosidase, recruitment of β-arrestin 2 to GPCR forms the whole β-galactosidase. The functionality of the whole β-galactosidase is detected by chemiluminescence (FlexStation3, Molecular Devices).
(§4) cAMP and β-arrestin assays described above were conducted to decide whether candidate compounds were μ- and/or δ-opioid receptor bias agonists for the G-protein pathway. All assays produced the concentration-response curve, and the curve data was validated by a quality control factor named Z′ factor. Because half-maximal effect concentration (EC50) depends on the population of receptors, the maximal asymptote of the concentration curve was used. Efficacy data of candidates was normalized by comparison to reference agonists DAMGO and SNC80 for OPRM and OPRD.

[2] = molecular target: T2, human μ-opioid receptor, OPRM (Homo sapiens, UniProt P35372); assay: PathHunter β-arrestin 2 assay, OPRM cell line; conditions: for OPRM β-ARR2 Emax (%): Example 3, Tables 5-7
T2 construct: host or cells: HEK-293 overexpressing β-arrestin2 fused to a β-galactosidase fragment
Text: as §1, §2, §3, §4

[3] = molecular target: T2, human μ-opioid receptor, OPRM; assay: Dominant assay: cAMP assay with/without irreversible antagonist β-FNA, OPRM cell line
Text: (§5) To confirm the agonist's efficacy in a nature-like system, we need inactivation of target receptors on the cell membrane. Most cell lines have an abundant target receptor population (also known as spare receptors). Therefore, agonists have more opportunity to constitute agonist-receptor conformation. In this environment, not only full agonists but also partial agonists can reach maximal response.
(§6) If the partial agonist is selected as a full agonist, translational in vivo research will likely fail.
(§7) Non-competitive, irreversible antagonists can be applicable to judge the pharmacological character of agonists because they permanently decrease the receptor population in the cell line system. β-FNA or β-CNA is used as a non-competitive and irreversible antagonist for OPRM, OPRD. Before cAMP assay, cells were incubated with β-FNA or β-CNA for 40 minutes. Afterwards, the procedure is the same.
(§8) If a partial agonist compound acts as a full agonist due to receptor population (pseudo full agonist), it cannot sustain maximal response with reduced receptor population. However, a full agonist compound maintains their maximal response even though increased EC50.

[4] = molecular target: T1, human δ-opioid receptor, OPRD; assay: Dominant assay: cAMP assay with/without irreversible antagonist β-CNA, OPRD cell line; conditions: for Emax: read-out: OPRD Gi β-CNA (+) Emax (%)
Text: as §5, §6, §7, §8

[5] = addition of β-FNA, Example 3, Tables 5-7, read-out: OPRM Gi β-FNA (+) EC50
[6] = addition of β-FNA, repeated dominant assay, Example 4, Tables 8-10, read-out: OPRM Gi β-FNA (+) EC50
[7] = no addition of β-FNA, Example 3, Tables 5-7, read-out: OPRM Gi β-FNA (−) EC50
[8] = no addition of β-FNA, repeated dominant assay, Example 4, Tables 8-10, read-out: OPRM Gi β-FNA (−) EC50
[9] = addition of β-CNA, Example 3, Tables 5-7, read-out: OPRD Gi β-CNA (+) EC50
[10] = addition of β-CNA, Example 3, Tables 5-7
[11] = addition of β-CNA, repeated dominant assay, Example 4, Tables 8-10, read-out: OPRD Gi β-CNA (+) EC50
[12] = addition of β-CNA, repeated dominant assay, Example 4, Tables 8-10
[13] = no addition of β-CNA, Example 3, Tables 5-7
[14] = no addition of β-CNA, Example 3, Tables 5-7, read-out: OPRD Gi β-CNA (−) EC50
[15] = no addition of β-CNA, repeated dominant assay, Example 4, Tables 8-10
[16] = no addition of β-CNA, repeated dominant assay, Example 4, Tables 8-10, read-out: OPRD Gi β-CNA (−) EC50

T1 sequence (P41143 whole entry, the tested form may be a part): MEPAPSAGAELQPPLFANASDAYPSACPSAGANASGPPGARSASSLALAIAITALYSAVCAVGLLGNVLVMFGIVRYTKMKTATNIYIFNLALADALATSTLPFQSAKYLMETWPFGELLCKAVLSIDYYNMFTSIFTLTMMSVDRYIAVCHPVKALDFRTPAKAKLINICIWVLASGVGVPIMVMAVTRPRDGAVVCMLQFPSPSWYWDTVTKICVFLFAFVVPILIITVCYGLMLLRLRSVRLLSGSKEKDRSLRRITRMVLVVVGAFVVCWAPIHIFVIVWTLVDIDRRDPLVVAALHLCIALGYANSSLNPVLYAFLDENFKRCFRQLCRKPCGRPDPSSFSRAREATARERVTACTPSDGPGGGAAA
T2 sequence (P35372 whole entry, the tested form may be a part): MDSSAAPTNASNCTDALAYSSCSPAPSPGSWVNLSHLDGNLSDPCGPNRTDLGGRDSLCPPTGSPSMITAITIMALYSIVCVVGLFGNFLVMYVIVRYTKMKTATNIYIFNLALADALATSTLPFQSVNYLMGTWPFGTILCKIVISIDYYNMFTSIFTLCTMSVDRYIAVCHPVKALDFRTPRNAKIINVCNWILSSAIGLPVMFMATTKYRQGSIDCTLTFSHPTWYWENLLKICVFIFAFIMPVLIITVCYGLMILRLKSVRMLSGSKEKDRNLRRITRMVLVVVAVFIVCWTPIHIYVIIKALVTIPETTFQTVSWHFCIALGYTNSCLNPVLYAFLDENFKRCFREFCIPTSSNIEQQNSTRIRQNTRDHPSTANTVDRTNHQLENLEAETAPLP

Structure (SMILES) | OPRD β-ARR2 Emax (%) [1] | OPRM β-ARR2 Emax (%) [2] | EC50 [3, 5] | EC50 [3, 6] | EC50 [3, 7] | EC50 [3, 8] | EC50 [4, 9] | EC50 [4, 11] | OPRD Gi β-CNA (−) Emax (%) [4, 13] | EC50 [4, 14] | OPRD Gi β-CNA (−) Emax (%) [4, 15] | EC50 [4, 16] | also measured
Cc1ccccc1NC(=O)NCC(c1ccc2c(c1)CCO2)N(C)C (single isomer, unassigned) [Compound 8] | 5.1% | 5.4% | 14.2 µM | 7.78 µM | 0.734 µM | 0.219 µM | 35.7 µM | 8.69 µM | 95.54% | 15 µM | 102.7% | 16.9 µM | β-arrestin pathway activation / bARR2 recruitment, in words ([1]; OPRD): lower bARR2 recruitment as compared to morphine; β-arrestin pathway activation / bARR2 recruitment, in words ([2]; OPRM): lower bARR2 recruitment as compared to morphine; Emax ([3]; addition of β-FNA, Example 3, Tables 5-7, read-out: OPRM Gi β-FNA (+) Emax (%)): 43.2%; Emax ([3]; addition of β-FNA, repeated dominant assay, Example 4, Tables 8-10, read-out: OPRM Gi β-FNA (+) Emax (%)): 77.5%; Emax ([3]; no addition of β-FNA, Example 3, Tables 5-7, read-out: OPRM Gi β-FNA (−) Emax (%)): 84.7%; Emax ([3]; no addition of β-FNA, repeated dominant assay, Example 4, Tables 8-10, read-out: OPRM Gi β-FNA (−) Emax (%)): 91.6%; Emax [4, 10]: 42.7%; Emax [4, 12]: 42.7%
Cc1ccccc1NC(=O)NCC(c1ccc2c(c1)CCO2)N(C)C (single isomer, unassigned) [Compound 9] | 16.1% | 22.9% | 1.66 µM | 0.791 µM | 0.0733 µM | 0.0713 µM | 5.86 µM | 5.86 µM | 66.82% | 2.79 µM | 139% | 18.1 µM | OPRM Gi β-FNA (+) Emax (%) ([3]; addition of β-FNA, Example 3, Tables 5-7): 52.64%; OPRM Gi β-FNA (+) Emax (%) ([3]; addition of β-FNA, repeated dominant assay, Example 4, Tables 8-10): 74.49%; OPRM Gi β-FNA (−) Emax (%) ([3]; no addition of β-FNA, Example 3, Tables 5-7): 98.76%; OPRM Gi β-FNA (−) Emax (%) ([3]; no addition of β-FNA, repeated dominant assay, Example 4, Tables 8-10): 91.98%; OPRD Gi β-CNA (+) Emax (%) [4, 10]: 51.61%; OPRD Gi β-CNA (+) Emax (%) [4, 12]: 51.61%
C[C@@H](NC(=O)[C@@H](N)Cc1ccc(O)cc1)C(=O)NCC(=O)N(C)[C@@H](Cc1ccccc1)C(=O)NCCO [DAMGO, [D-Ala^2, NMe-Phe^4, Gly-ol^5]-enkephalin, reference compound] |  |  |  |  |  |  |  |  |  |  |  |  | maximal response on decreasing receptor population (dominant tendency), in words ([3]; OPRM cell lines, β-FNA): full agonist
C=CCN1C[C@H](C)N([C@H](c2ccc(C(=O)N(CC)CC)cc2)c2cccc(OC)c2)C[C@H]1C [SNC80, reference compound] |  |  |  |  |  |  |  |  |  |  |  |  | maximal response on decreasing receptor population (dominant tendency), in words ([4]; OPRD cell lines, β-CNA): full agonist; completeness of concentration-response curve, in words ([4]; OPRD system): produced a full concentration-response curve
